Data: paper PMC11477294, “In Vitro Profiling of the Antiviral Peptide TAT-I24” (International Journal of Molecular Sciences, 2024)
Where a SMILES comes first, the peptide text is derived from it.

Experiments:
[1] = test system: baculovirus expressing luciferase under the control of the CMV promoter; format: cell-based; conditions: luciferase reporter gene expression in HEK293 cells transduced with baculovirus-luc, MOI 5, 24 h post-infection; 1:3 peptide dilution series; non-linear regression; n = 8
Experimental: A baculovirus expressing luciferase under the control of the CMV promoter has been described previously. HEK293 cells were seeded at a density of 2 × 10^4 cells/100 µL per well in 96-well plates (Sarstedt, Germany). On the next day, cells were treated with a 1:3 dilution series of peptides and, without further pre-incubation, subsequently infected with baculovirus–luc at a multiplicity of infection (MOI) of 5. Cells were lysed 24 h post-infection using 20 µL Cell Culture Lysis Reagent (Promega, Mannheim, Germany). From the lysates, 10 µL was transferred to white 96-well plates, and luciferase was recorded using a luciferase assay system and a GloMax®-Multi Detection System (Promega, Mannheim, Germany).

[2] = test system: MCMV pM123/IE1 protein expression; assay: pM123/IE1 immunofluorescence in MCMV-infected NIH/3T3 cells; format: cell-based, mouse cytomegalovirus; conditions: MCMV MOI 1, 6 h post-infection
Experimental: NIH/3T3 cells were seeded at a density of 2 × 10^4 cells/250 µL per well in ibiTreat 8-well chambers (ibidi, Gräfelfing, Germany) and allowed to attach overnight at 37 °C. On the next day, cells were treated with peptides and infected with MCMV at an MOI of 1 with the aid of centrifugal enhancement, twice at 800× g for 15 min. After 6 h of incubation at 37 °C, the supernatants were removed and cells were fixed with 5% formaldehyde for 1 h at room temperature, followed by permeabilization with 0.5% Triton X-100 (Sigma Aldrich, Schnelldorf, Germany) in PBS for 10 min at room temperature. Cells were then incubated with 3% bovine serum albumin (BSA; Sigma Aldrich, Schnelldorf, Germany) in PBS for one hour. After that, anti-m123/IE-1 antibody (clone IE1.01; Center for Proteomics, Rijeka, Croatia) was added at a 1:400 dilution in PBS + 1% BSA and slides were incubated overnight at 4 °C. On the next day, wells were washed twice with PBS. […]

HEK293 cells = assay: Cell viability assay (CellTiter-Blue) in HEK293 cells; format: cell-based; conditions: 72 h at 37 °C, 3-fold dilution series starting with 20 µM, triplicate, non-linear regression (curve fit)
Experimental: HEK293 cells were seeded at a density of 2.5 × 10^3 cells/100 µL per well in a 96-well plate (Sarstedt, Germany). In addition, a serial 1:2 dilution of the cell suspension was added to each plate to generate a standard curve. On the next day, cells were treated with serial 1:3 peptide dilutions in triplicate and incubated for 72 h at 37 °C. Then, 20 µL of CellTiter-Blue® Cell Viability Assay (Promega, Mannheim, Germany) was added to each well and incubated at 37 °C for a further 1–2 h. Fluorescence was recorded using a GloMax®-Multi Detection System (Promega, Mannheim, Germany). The percentage of viable cells was calculated from the cell dilution series from each plate by linear regression analysis. The selectivity index was calculated using the following formula: SI = CC50/IC50.
Figure S1. Cell viability assay in HEK293 cells in the presence of peptides. Cells were incubated with 3 -fold dilution series of peptides starting with a concentration of 20 µM for 72 hours and measured using the Cell Titer Blue assay. Curve fitting of % viable cells of untrea ted control was performed using Graph Pad Prism softwar e.
(1 picture or pasted object on this page, not shown here)

[3] = test system: MCMV strain delm157-luc rep; format: cell-based, mouse cytomegalovirus; conditions: luciferase reporter gene expression in NIH/3T3 cells infected with replication-competent MCMV, MOI 0.5, 72 h post-infection; 1:3 dilution series; non-linear regression; n = 9
Experimental: NIH/3T3 cells were seeded at a density of 2 × 10^4 cells/100 µL per well in a 96-well plate (Sarstedt, Germany) and allowed to attach overnight. On the next day, cells were treated with a 1:3 dilutions series of peptides and, without further pre-incubation, subsequently infected with the MCMV strain delm157-luc rep. The MCMV stock was prepared and quantified as previously described. The virus (MOI 0.5 for luc assays; for other assays, see the specific descriptions) was adsorbed to cells with the aid of centrifugal enhancement twice at 800× g for 15 min at room temperature and incubated at 37 °C for the indicated times. For the luciferase assays, the infected cells were lysed 72 h post-infection using 20 µL Cell Culture Lysis Reagent (Promega, Mannheim, Germany). From the lysates, 10 µL was transferred to white 96-well plates, and luciferase was recorded using a Luciferase Assay System and a GloMax®-Multi Detection System (Promega, Mannheim, Germany).

[4] = test system: MCMV m123/ie-1 transcript; assay: m123/ie-1 transcript qPCR in MCMV-infected NIH/3T3 cells; format: cell-based, mouse cytomegalovirus; conditions: MCMV MOI 1, two hours post-infection, duplicate treatments
Experimental: NIH/3T3 cells were seeded at a density of 2 × 10^4 cells/250 µL per well in a 48-well plate and allowed to attach overnight at 37 °C. On the next day, cells were treated with peptides at the indicated concentrations and infected with MCMV at an MOI of 1 with the aid of centrifugal enhancement, twice at 800× g for 15 min. Cells were then returned to 37 °C for two hours before cell lysis for further processing. RNA isolation, DNase digestion, cDNA reaction and qPCR were performed, as described previously.

With CC(C)C[C@H](NC(=O)[C@H](CS)NC(=O)[C@H](CCC(N)=O)NC(=O)[C@@H]1CCCN1C(=O)[C@@H]1CCCN1C(=O)[C@H](CCCNC(=N)N)NC(=O)[C@H](CCCNC(=N)N)NC(=O)[C@H](CCCNC(=N)N)NC(=O)[C@H](CCC(N)=O)NC(=O)[C@H](CCCNC(=N)N)NC(=O)[C@H](CCCNC(=N)N)NC(=O)[C@H](CCCCN)NC(=O)[C@H](CCCCN)NC(=O)[C@H](CCCNC(=N)N)NC(=O)CN)C(=O)N[C@@H](C)C(=O)N[C@@H](Cc1ccccc1)C(=O)N[C@@H](Cc1ccc(O)cc1)C(=O)N[C@@H](C)C(=O)N[C@@H](CS)C(=O)N[C@@H](Cc1ccccc1)C(=O)N[C@@H](CS)C(=O)O [TAT-I24] (H-GRKKRRQRRRPPQCLAFYACFC-OH) the IC50 [1] was 50 nM, the “number of pM123/IE1-positive cells” value ([2]; 1 µM peptide) was “clearly reduced” and the “number of pM123/IE1-positive cells” value ([2]; 10 µM peptide) was “clearly reduced”. For the same compound, the “HEK293 CC50” value (HEK293 cells) was 124 µM, the IC50 [3] was 910 nM and the “m123/ie-1 transcript levels relative to infected cells without peptides” value ([4]; 1 µM peptide) was “significantly reduced”. For the same compound, the “m123/ie-1 transcript levels relative to infected cells without peptides” value ([4]; 10 µM peptide) was “significantly reduced”.
